Experimental data from patent US5134137A, “Cephalosporin antibiotics” (The Upjohn Company, priority 1990, dated 1992).
Converted amounts (≈) assume the structure as drawn. Read-outs that look alike come from different tables or passages of the source.

Key:
Format in all cases: cell-based
[1] = tested on: Streptococcus bovis; assay: MIC, agar dilution, Streptococcus bovis; conditions: Streptococcus equinus; strain UC6281; read-out: MIC
Experimental: (§1) Stock solution of each test antibiotic compound were prepared to have a concentration of 2 mg. of the test compound per milliliter in sterile water of 0.1M ammonium acetate solution. The amount of each compound used was adjusted for base compound activity as calculated from the purity data for the selected batch of compound.
(§2) The dilution procedure described by Washington and Sutter [Manual of Clinical Microbiology, 3rd, Edit. (Lennett, E. H. et al, Eds.), pp. 453-458 (1980), American Society for Microbiology, Washington, D.C.] was modified so that serial concentrations of 128 to 0.0625 microgram/ml. in sterile water was obtained. Then 1.5 ml. aliquots of these test antibiotic dilution mixtures are added to 13.5 molten (50° C.) Mueller-Hinton agar. Each resulting mixture is poured into 15×100 mm, sterile Petri plates and allowed to dry at room temperature overnight.
(§3) Test bacterial cultures are maintained at -70° C. on glass beads. [See R. J. Yancey, Jr. et al, Amer. Jr. of Vet. Research, 48, No. 7, pp. 1050-1053, (1987)]. At least one bacteria-laden bead per culture is dropped into one ml. of brain heart infusion (BHI) broth for overnight culture at 37° C. in 5% V/V carbon dioxide in air atmosphere.
(§4) On the data of assay, 2 to 8 drops of the bacterial broth cultures are transferred to fresh BHI broth (1 ml.) and the mixture is incubated for 4 to 6 hours at 37° C. in a 5% V/V carbon dioxide in air atmosphere. The resulting cultures are then diluted to match a 0.5 MacFarland standard and further diluted 1:20 V/V with sterile saline solution.
(§5) A 0.001 ml. drop of the resulting mixture, containing approximately 10^3 to 10^4 colony forming units (CFU) of each test bacteria organism, is dispensed onto the surface of the test antibiotic compound test plates with a Steer's type replicator. The resulting innoculated plates are incubated 16 to 18 hours at 37° C. with a carbon dioxide atmosphere.
as §1, with “Stock solutions” for “Stock solution”
as §2, with “mm.” for “mm,”
as §2, with “for Microbiology.” for “for Microbiology,”, “15×100 mm.” for “15×100 mm,”
as §3, with “culture” for “cultures”
(§6) On the day of assay, 2 to 8 drops of the bacterial broth cultures are transferred to fresh BHI broth (1 ml.) and the mixture is incubated for 4 to 6 hours at 37° C. in a 5% V/V carbon dioxide in air atmosphere. […]

[2] = tested on: Micrococcus luteus; assay: MIC, agar dilution, Micrococcus luteus; conditions: Micrococcus luteus; strain UC130; read-out: MIC
Experimental: as §1, §2, §3, §4, §5
as §1, with “Stock solutions” for “Stock solution”
as §2, with “mm.” for “mm,”
as §2, with “for Microbiology.” for “for Microbiology,”, “15×100 mm.” for “15×100 mm,”
as §3, with “culture” for “cultures”
as §6

[3] = tested on: Enterococcus faecalis; assay: MIC, agar dilution, Enterococcus faecalis; conditions: Enterococcus faecalis; strain UC694; read-out: MIC
Experimental: as §1, with “Stock solutions” for “Stock solution”
as §2, §3, §4, §5, §1
as §2, with “mm.” for “mm,”
as §2, with “for Microbiology.” for “for Microbiology,”, “15×100 mm.” for “15×100 mm,”
as §3, with “culture” for “cultures”
as §6

[4] = tested on: Escherichia coli; assay: MIC, agar dilution, Escherichia coli; conditions: Escherichia coli, read-out: MIC
Experimental: as §1, §2, §3, §4, §5
as §1, with “Stock solutions” for “Stock solution”
as §2, with “mm.” for “mm,”
as §2, with “for Microbiology.” for “for Microbiology,”, “15×100 mm.” for “15×100 mm,”
as §3, with “culture” for “cultures”
as §6

[5] = tested on: Enterococcus faecium; assay: MIC, agar dilution, Enterococcus faecium; conditions: Enterococcus faecium; strain UC241; read-out: MIC
Experimental: as §1, with “Stock solutions” for “Stock solution”
as §2, §3, §4, §5, §1
as §2, with “mm.” for “mm,”
as §2, with “for Microbiology.” for “for Microbiology,”, “15×100 mm.” for “15×100 mm,”
as §3, with “culture” for “cultures”
as §6

[6] = tested on: Bordetella bronchiseptica; assay: MIC, agar dilution, Bordetella bronchiseptica; conditions: Bordetella bronchiseptica; strain UC6313; read-out: MIC
Experimental: as §1, §2, §3, §4, §5
as §1, with “Stock solutions” for “Stock solution”
as §2, with “mm.” for “mm,”
as §2, with “for Microbiology.” for “for Microbiology,”, “15×100 mm.” for “15×100 mm,”
as §3, with “culture” for “cultures”
as §6

[7] = tested on: Streptococcus dysgalactiae; assay: MIC, agar dilution, Streptococcus dysgalactiae; conditions: Streptococcus dysgalactiae; strain UC251; read-out: MIC
Experimental: as §1, §2, §3, §4, §5
as §1, with “Stock solutions” for “Stock solution”
as §2, with “mm.” for “mm,”
as §2, with “for Microbiology.” for “for Microbiology,”, “15×100 mm.” for “15×100 mm,”
as §3, with “culture” for “cultures”
as §6

[8] = tested on: Pseudomonas aeruginosa; assay: MIC, agar dilution, Pseudomonas aeruginosa; conditions: Pseudomonas aeruginosa, ATCC27853; strain ATCC 27853; read-out: MIC
Experimental: as §1, §2, §3, §4, §5
as §1, with “Stock solutions” for “Stock solution”
as §2, with “mm.” for “mm,”
as §2, with “for Microbiology.” for “for Microbiology,”, “15×100 mm.” for “15×100 mm,”
as §3, with “culture” for “cultures”
as §6

[9] = tested on: Streptococcus uberis; assay: MIC, agar dilution, Streptococcus uberis; conditions: Streptococcus uberis, read-out: MIC
Experimental: as §1, §2, §3, §4, §5
as §1, with “Stock solutions” for “Stock solution”
as §2, with “mm.” for “mm,”
as §2, with “for Microbiology.” for “for Microbiology,”, “15×100 mm.” for “15×100 mm,”
as §3, with “culture” for “cultures”
as §6

[10] = tested on: Corynebacterium pyogenes; assay: MIC, agar dilution, Corynebacterium pyogenes; conditions: strain 213-2; read-out: MIC
Experimental: as §1, §2, §3, §4, §5
as §1, with “Stock solutions” for “Stock solution”
as §2, with “mm.” for “mm,”
as §2, with “for Microbiology.” for “for Microbiology,”, “15×100 mm.” for “15×100 mm,”
as §3, with “culture” for “cultures”
as §6

[11] = tested on: Pasteurella hemolytica; assay: MIC (minimum inhibitory concentration), agar dilution, Pasteurella hemolytica; conditions: Pasteurella, read-out: MIC
Experimental: as §1, §2, §3, §4, §5
as §1, with “Stock solutions” for “Stock solution”
as §2, with “mm.” for “mm,”
as §2, with “for Microbiology.” for “for Microbiology,”, “15×100 mm.” for “15×100 mm,”
as §3, with “culture” for “cultures”
as §6

[12] = tested on: Pasteurella multocida; assay: MIC, agar dilution, Pasteurella multocida; conditions: Pasteurella multocida; strain UC9581; read-out: MIC
Experimental: as §1, §2, §3, §4, §5
as §1, with “Stock solutions” for “Stock solution”
as §2, with “mm.” for “mm,”
as §2, with “for Microbiology.” for “for Microbiology,”, “15×100 mm.” for “15×100 mm,”
as §3, with “culture” for “cultures”
as §6

[13] = tested on: Salmonella choleraesuis; assay: MIC, agar dilution, Salmonella choleraesuis; conditions: Salmonella enterica, read-out: MIC
Experimental: as §1, §2, §3, §4, §5
as §1, with “Stock solutions” for “Stock solution”
as §2, with “mm.” for “mm,”
as §2, with “for Microbiology.” for “for Microbiology,”, “15×100 mm.” for “15×100 mm,”
as §3, with “culture” for “cultures”
as §6

[14] = tested on: Streptococcus suis; assay: MIC, agar dilution, Streptococcus suis; conditions: Streptococcus suis; strain 650-2; read-out: MIC
Experimental: as §1, §2, §3, §4, §5
as §1, with “Stock solutions” for “Stock solution”
as §2, with “mm.” for “mm,”
as §2, with “for Microbiology.” for “for Microbiology,”, “15×100 mm.” for “15×100 mm,”
as §3, with “culture” for “cultures”
as §6

[15] = tested on: Streptococcus agalactiae; assay: MIC, agar dilution, Streptococcus agalactiae; conditions: Streptococcus agalactiae, read-out: MIC
Experimental: as §1, §2, §3, §4, §5
as §1, with “Stock solutions” for “Stock solution”
as §2, with “mm.” for “mm,”
as §2, with “for Microbiology.” for “for Microbiology,”, “15×100 mm.” for “15×100 mm,”
as §3, with “culture” for “cultures”
as §6

[16] = tested on: Salmonella typhimurium; assay: MIC, agar dilution, Salmonella typhimurium; conditions: Salmonella enterica, read-out: MIC
Experimental: as §1, §2, §3, §4, §5
as §1, with “Stock solutions” for “Stock solution”
as §2, with “mm.” for “mm,”
as §2, with “for Microbiology.” for “for Microbiology,”, “15×100 mm.” for “15×100 mm,”
as §3, with “culture” for “cultures”
as §6

[17] = tested on: Staphylococcus aureus; assay: MIC, agar dilution, Staphylococcus aureus; conditions: Staphylococcus aureus, read-out: MIC
Experimental: as §1, §2, §3, §4, §5
as §1, with “Stock solutions” for “Stock solution”
as §2, with “mm.” for “mm,”
as §2, with “for Microbiology.” for “for Microbiology,”, “15×100 mm.” for “15×100 mm,”
as §3, with “culture” for “cultures”
as §6

[18] = CHOLERAESUIS / UC6073, strain UC6073
[19] = CHOLERAESUIS / UC6077, strain UC6077
[20] = TYPHIMURIUM / UC6162, strain UC6162
[21] = TYPHIMURIUM / UC6164, strain UC6164

Row | Compound | MIC [1] [µg/mL] | MIC [2] [µg/mL] | MIC [3] [µg/mL] | MIC ([4]; strain UC3784) [µg/mL] | MIC ([4]; strain UC6720) [µg/mL] | MIC ([4]; strain UC9670) [µg/mL] | MIC [5] [µg/mL] | MIC [6] [µg/mL] | MIC [7] [µg/mL] | MIC [8] [µg/mL] | MIC ([9]; strain UC3946) [µg/mL] | MIC ([9]; strain UC6159) [µg/mL] | MIC [10] [µg/mL] | MIC ([11]; strain UC6531) [µg/mL] | MIC ([11]; strain UC6532) [µg/mL] | MIC ([11]; strain UC9582) [µg/mL] | MIC [12] [µg/mL] | MIC [13, 18] [µg/mL] | MIC [13, 19] [µg/mL] | MIC [14] [µg/mL] | also measured
1 | CO/N=C(\C(=O)N[C@@H]1C(=O)N2C(C(=O)O)=C(CSSCc3ccccc3)CS[C@H]12)c1csc(N)n1 [Example 14] | ≤ 0.06 | ≤ 0.06 | > 32 | 8 (≈ 14.5 µM) | 16 (≈ 29 µM) | 8 (≈ 14.5 µM) | > 32 | > 32 | ≤ 0.06 | > 32 | ≤ 0.06 | 8 (≈ 14.5 µM) | 0.25 (≈ 0.453 µM) | 0.5 (≈ 0.906 µM) | 0.25 (≈ 0.453 µM) | 2 (≈ 3.63 µM) | 2 (≈ 3.63 µM) | 16 (≈ 29 µM) | 32 (≈ 58 µM) | ≤ 0.06 | MIC ([15]; strain UC6892): ≤ 0.06 µg/mL; MIC [16, 20]: 16 µg/mL (≈ 29 µM); MIC [16, 21]: 16 µg/mL (≈ 29 µM); MIC ([17]; strain UC6093): 1 µg/mL (≈ 1.81 µM); MIC ([17]; strain UC6097): 1 µg/mL (≈ 1.81 µM); MIC ([17]; strain UC9203): 1 µg/mL (≈ 1.81 µM)
2 | CCC(C)SSCC1=C(C(=O)O)N2C(=O)[C@@H](NC(=O)/C(=N\OC)c3csc(N)n3)[C@H]2SC1 (some centres unmarked) [Example 13] | > 32 | 0.13 (≈ 0.251 µM) | > 32 | 8 (≈ 15.5 µM) | 16 (≈ 30.9 µM) | 8 (≈ 15.5 µM) | > 32 | > 32 | ≤ 0.06 | > 32 | 0.13 (≈ 0.251 µM) | 8 (≈ 15.5 µM) | 32 (≈ 61.8 µM) | 1 (≈ 1.93 µM) | 0.13 (≈ 0.251 µM) | 0.25 (≈ 0.483 µM) | 8 (≈ 15.5 µM) | 32 (≈ 61.8 µM) | > 32 | ≤ 0.06 | MIC ([15]; strain UC3947): 2 µg/mL (≈ 3.86 µM); MIC ([15]; strain UC6892): > 32 µg/mL; MIC [16, 20]: 16 µg/mL (≈ 30.9 µM); MIC [16, 21]: 16 µg/mL (≈ 30.9 µM); MIC ([17]; strain UC6093): 4 µg/mL (≈ 7.73 µM); MIC ([17]; strain UC6097): 2 µg/mL (≈ 3.86 µM); MIC ([17]; strain UC9203): 2 µg/mL (≈ 3.86 µM)
3 | CO/N=C(\C(=O)N[C@@H]1C(=O)N2C(C(=O)O)=C(CSSC3CCCCC3)CS[C@H]12)c1csc(N)n1 [Example 19] | ≤ 0.06 | ≤ 0.06 | > 32 | 4 (≈ 7.36 µM) | 8 (≈ 14.7 µM) | 4 (≈ 7.36 µM) | > 32 | > 32 | ≤ 0.06 | > 32 | 0.13 (≈ 0.239 µM) | 8 (≈ 14.7 µM) | 0.5 (≈ 0.92 µM) | 0.5 (≈ 0.92 µM) | 0.5 (≈ 0.92 µM) | 0.25 (≈ 0.46 µM) | ≤ 0.06 | 8 (≈ 14.7 µM) | 16 (≈ 29.4 µM) | ≤ 0.06 | MIC ([15]; strain UC3947): ≤ 0.06 µg/mL; MIC ([15]; strain UC6892): ≤ 0.06 µg/mL; MIC [16, 20]: 16 µg/mL (≈ 29.4 µM); MIC [16, 21]: 16 µg/mL (≈ 29.4 µM); MIC ([17]; strain UC6093): 1 µg/mL (≈ 1.84 µM); MIC ([17]; strain UC6097): 1 µg/mL (≈ 1.84 µM); MIC ([17]; strain UC9203): 1 µg/mL (≈ 1.84 µM)
